Earlier results, collected in patent US20050009919A1, “Treating cachexia and excessive catabolism with (-)-hydroxycitric acid” (priority 2003, published 2005).

Compound | Appetite suppression in clinical trials (Heymsfield 1998, Mattes 2000) | Weight change in clinical trials (Heymsfield 1998, Mattes 2000) | Anorectic results in clinical trials (1.2 grams to 3 grams of HCA per day, divided doses before meals)
O=C(O)CC(O)(C(=O)O)C(O)C(=O)O (single isomer, unassigned; (-)) [HCA, (−)-Hydroxycitric acid] | failed to produce appetite suppression | not-statistically-significant trends toward weight elevation | –
calcium (−)-hydroxycitrate [reference compound] | – | – | failed to produce anorectic results
